Experiments:
[1] = tested on: Glutamate (mGlu3/mGlu5/mG1u7); experiment: Glutamate receptor aequorin / cAMP assays; format: cell-based, human; conditions: mGlu receptors
Procedure: Additional receptor agonist/agonist activity assessments were performed using the 8′-OH DHE test compound. Table 12 contains a summary of the cell lines (CHO-K1/HEK293 transfected with relevant human receptor) and the assays performed to detect any agonist or antagonist activity. […]
For agonist testing, 30 μL of cell suspension was mixed with 30 μL of the test 8′-OH DHE compound or reference agonist in a 384-well plate. The resulting emission of light was recorded using the FDSS 6000 luminometer. […] The resulting emission of light was recorded using the FDSS 6000 luminometer.
Cells expressing the human recombinant receptor of interest were grown in media without antibiotic and detached by gentle flushing with PBS-EDTA (5 mM EDTA), recovered by centrifugation and resuspended in assay buffer (KRH: 5 mM KCl, 1.25 mM MgSO4, 124 mM NaCl, 25 mM HEPES, 13.3 mM glucose, 1.25 mM KH2PO4, 1.45 mM CaCl2, 0.5 g/L BSA). […] Lysis buffer was added and after one hour incubation, cAMP concentrations were determined according to the manufacturer specification with the HTRF kit. […] Lysis buffer was added and after 1 hour incubation, cAMP concentrations were determined according to the manufacturer specification, with the HTRF kit. […]

[2] = tested on: NMDA (NR1/NR2A/NR2B/NR2C/NR2D); experiment: NMDA receptor Fluo-8 calcium FLIPR assay (agonist/antagonist); format: cell-based, human; conditions: NMDA receptors
Procedure: Additional receptor agonist/agonist activity assessments were performed using the 8′-OH DHE test compound. Table 12 contains a summary of the cell lines (CHO-K1/HEK293 transfected with relevant human receptor) and the assays performed to detect any agonist or antagonist activity.
Studies for NMDA receptors (the NR1, NR2A, NR2B, NR2C and NR2D receptors) were conducted to monitor receptor activity of the test 8′-OH DHE compound using the Fluo-8 calcium kit and a Fluorescence Imaging Plate Reader (FLIPR^TETRA™) instrument. The following channels were evaluated: Cloned NMDA receptor (NR1/NR2A) channel (encoded by the GRIN1 and GRIN2A genes, co-expressed in HEK293 cells); Cloned NMDA receptor (NR1/NR2B) channel (encoded by the GRIN1 and GRIN2B genes, co-expressed in HEK293 cells); Cloned NMDA receptor (NR1/NR2C) channel (encoded by the GRIN1 and GRIN2C genes, co-expressed in HEK293 cells); and Cloned NMDA receptor (NR1/NR2D) channel (encoded by the GRIN1 and GRIN2D genes, transiently co-expressed in HEK293 cells).
For the agonist assessment, the effect of the test 8′-OH DHE compound was evaluated in the absence of the positive control agonist. The signal, elicited in the presence of the agonist (100 μM Glutamic acid+20 μM Glycine), was set to 100% activation and the signal in the presence of the vehicle control (Mg^2+-free HB-PS) was set to 0% activation. […]

## CN1C[C@H](C(=O)N[C@]2(C)O[C@@]3(O)[C@@H]4CCC(O)N4C(=O)[C@H](Cc4ccccc4)N3C2=O)C[C@@H]2c3cccc4[nH]cc(c34)C[C@H]21 (some centres unmarked) [8′-OH DHE, 8′-Hydroxy-Dihydroergotamine]
[1]
  Activity (Agonism: EC50; Antagonism: IC50): Inactive
[2]
  Activity (Agonism: EC50; Antagonism: IC50): Inactive
